Results: patent US20260240869A1, “ANTIPSEUDOMONAL FUSIDIC ACID COMPOUNDS” (priority 2022, published 2026)
Converted amounts (≈) assume the structure as drawn. Read-outs that look alike come from different tables or passages of the source.

Tests used:
P. aeruginosa PAO1 [1] = test: MIC, CLSI broth microdilution, P. aeruginosa PAO1; format: cell-based, Pseudomonas aeruginosa; conditions: for MIC: Pseudomonas aeruginosa
Experimental: (§1) Antimicrobial Susceptibility Tests. Susceptibility testing was performed in biological triplicate, using the microdilution broth method as outlined by the Clinical and Laboratory Standards Institute. Bacteria were cultured with cation-adjusted Meuller-Hinton broth (Sigma-Aldrich; catalogue number: 90922) or Luria-Bertani (LB) broth (Lennox) in round-bottom 96-well plates (Corning; catalogue number: 3788).

P. aeruginosa PAO1 [2] = test: LC-MS/MS whole-cell accumulation assay, P. aeruginosa PAO1; format: cell-based, Pseudomonas aeruginosa; conditions: for WT Accum: WT PAO1, ± s.e.m. (Table 7); for PA accum.: P. aeruginosa, value ± s.e.m. (Chart 2)
Experimental: (§2) Accumulation Assay. The accumulation assay was performed in triplicate in batches of ten samples, with each batch containing tetracycline or ciprofloxacin as a positive control. P. aeruginosa PAO1, PAO1 A6, PA14, PA14 A40, and PA1280, and E. coli MG1655 were used in these experiments. For each replicate, 2.5 mL (E. coli) or 5 mL (P. aeruginosa) of an overnight culture was diluted into 250 mL of fresh Luria-Bertani broth (Lennox) or Tryptic Soy Broth (TSB) and grown at 37° C. with shaking to an optical density (OD600) of 0.55-0.60. The bacteria were pelleted at 3220 r.c.f. for 10 min at 4° C., and the supernatant was discarded. The pellets were resuspended in 40 mL of phosphate buffered saline (PBS) and pelleted as before, and the supernatant was discarded. The pellets were resuspended in 8.8 mL of fresh PBS and aliquoted into ten, 1.5 mL Eppendorf tubes (875 μL each). The number of colony-forming units (CFUs) was determined by a calibration curve. The samples were equilibrated at 37° C. with shaking for 5 min; compound was added (final concentration=50 μM), and then the samples were incubated at 37° C. with shaking for either 10 min. These time points were short enough to minimize metabolic and growth changes (no changes in OD600 or CFU count observed). After incubation, 800 μL of the cultures was carefully layered on 700 μL of silicone oil (9:1 AR20/Sigma High Temperature, cooled to −78° C.). Bacteria were pelleted through the oil by centrifuging at 13 000 r.c.f. for 2 min at room temperature (with the supernatant remaining above the oil); the supernatant and oil were then removed by pipetting. To lyse the samples, each pellet was dissolved in […] of water, and then, they were subjected to three (E. coli) or four (P. aeruginosa) freeze-thaw cycles of 3 min in liquid nitrogen followed by 3 min in a water bath at 65° C. P. aeruginosa samples were then treated with 50 µM DNase and RNase and incubated at 37° C. for 15 minutes. The lysates were pelleted at 13 000 r.c.f. for 2 min at room temperature, and the supernatant was collected ([…]). The debris was resuspended in 100 μL of methanol and pelleted as before. The supernatants were removed and combined with the previous supernatants collected. Finally, the remaining debris was removed by centrifuging at 20 000 r.c.f. for 10 min at room temperature. Supernatants were analyzed by LC-MS/MS.
(§3) Samples were analyzed with the 5500 QTRAP LC/MS/MS system (AB Sciex) with a 1200 series HPLC system (Agilent Technologies) including a degasser, an autosampler, and a binary pump. Liquid chromatography separation was performed on an Agilent SB-Aq column (4.6×50 mm, 5 μm) (Agilent Technologies) with mobile phase A (0.1% formic acid in water) and mobile phase B (0.1% formic acid in acetonitrile). The flow rate was 0.3 mL/min. The linear gradient was as follows: 0-3 min, 100% mobile phase A; 10-15 min, 2% mobile phase A; 15.5-21 min, 100% mobile phase A. The autosampler was set at 5° C. The injection volume was 15 μL. Mass spectra were acquired with both positive electrospray ionization at the ion spray voltage of 5500 V and negative electrospray ionization at the ion spray voltage of −4500 V. The source temperature was 450° C. The curtain gas, ion source gas 1, and ion source gas 2 were 33, 50, and 65, respectively. Multiple reaction monitoring was used to quantify the metabolites. Power analysis was not used to determine the number of replicates. Error bars represent the standard error of the mean of three biological replicates. The statistical significance of the accumulation was determined using a two sample Welch's t test (one-tailed test, assuming unequal variance) relative to the negative controls. All compounds evaluated in the biological assays were >95% pure.
MBN assay. Assays measuring permeabilization by polymyxin B nonapeptide (PMBN) were performed as above, with the addition of 8 μg/mL PMBN immediately before the compound of interest was added.

P. aeruginosa PAΔ6 [3] = test: MIC, efflux pump knockout strain PAΔ6; format: cell-based, Pseudomonas aeruginosa; conditions: for Fold change: MIC ratio WT PAO1 / PAΔ6 (Table 2); for Fold change (MIC): WT MIC / PAΔ6 MIC (Table 7)
Experimental: as §1

P. aeruginosa PAΔ6 [4] = test: LC-MS/MS whole-cell accumulation assay, PAΔ6; format: cell-based, Pseudomonas aeruginosa; conditions: for change of accumulation in efflux pump knockout PAΔ6 versus WT PAO1: FIG. 1c; for Fold change (Accum): PAΔ6 Accum / WT Accum (Table 7); for PAΔ6 Accum: ± s.e.m. (Table 7)
Experimental: as §2, §3

WT PA = conditions: retrospective literature analysis (Table 6); cited from earlier work
WT EC = conditions: retrospective literature analysis (Table 6); cited from earlier work
E. coli MG1655 [5] = test: LC-MS/MS whole-cell accumulation assay, E. coli MG1655; format: cell-based; conditions: for EC accum.: E. coli, value ± s.e.m. (Chart 2); for EC Accumulation (FA): E. coli MG1655, accumulation of FA reported (Table 8)
Experimental: as §2, §3

E. coli MG1655 [6] = test: MIC, E. coli MG1655; format: cell-based; conditions: Escherichia coli, MG1655; CLSI (Table 8); read-out: E. coli MG1655 MIC
Experimental: as §1

[7] = efflux pump KO strain, MH or LB broth (Table 2)
[8] = PAO1, CLSI (Table 8), read-out: P. aeruginosa PAO1 MIC
[9] = WT P. aeruginosa PAO1, MH or LB broth (Table 7), read-out: WT MIC

O=C(N[C@H](CO)[C@H](O)c1ccc([N+](=O)[O-])cc1)C(Cl)Cl [Chloramphenicol]
MIC (P. aeruginosa PAO1 [1]; WT P. aeruginosa PAO1, MH or LB broth (Table 2), read-out: WT MIC): > 512 µg/mL | WT MIC (P. aeruginosa PAO1 [1]; WT P. aeruginosa PAO1, MH or LB broth (Table 7)): >512 µg/mL | WT Accum (P. aeruginosa PAO1 [2]): 122 ± 23 nmol/10^12 CFUs | PAΔ6 MIC (P. aeruginosa PAΔ6 [3]; MH or LB broth (Table 7)): 4 µg/mL | Fold change (P. aeruginosa PAΔ6 [3]): >128 | Fold change (MIC) (P. aeruginosa PAΔ6 [3]): >128 | PAΔ6 MIC (P. aeruginosa PAΔ6 [3]; [7]): 4 µg/mL | change of accumulation in efflux pump knockout PAΔ6 versus WT PAO1 (P. aeruginosa PAΔ6 [4]): increase in accumulation | Fold change (Accum) (P. aeruginosa PAΔ6 [4]): 4.4 | PAΔ6 Accum (P. aeruginosa PAΔ6 [4]): 537 ± 19 nmol/10^12 CFUs

CCNc1cc(F)cc2c1[nH]c1ncc(-c3cnc(OC)nc3)c(-n3cc(CN)c(C(F)(F)F)n3)c12 [Compound 17r]
WT PA MIC (WT PA): 1.3 µg/mL | WT EC MIC (WT EC): 0.31 µg/mL

CCNc1cc(F)cc2c1[nH]c1ncc(-c3cnc(OC)nc3)c(-n3ncc4c3CNC4)c12 [Compound 17x]
WT PA MIC (WT PA): 10 µg/mL | WT EC MIC (WT EC): 0.81 µg/mL

N[C@H]1CO[C@H]2[C@@H]1OC[C@H]2OS(=O)(=O)c1ccc(-c2ccccc2)cc1 [Compound 48]
PA accum. (P. aeruginosa PAO1 [2]): 282 ± 37 nmol/10^12 CFUs | EC accum. (E. coli MG1655 [5]): 1965 ± 291 nmol/10^12 CFUs

N[C@H]1CO[C@H]2[C@@H]1OC[C@H]2OS(=O)(=O)c1ccc(Br)cc1 [Compound 49]
PA accum. (P. aeruginosa PAO1 [2]): 217 ± 3 nmol/10^12 CFUs | EC accum. (E. coli MG1655 [5]): 1647 ± 108 nmol/10^12 CFUs

Cc1ccc(S(=O)(=O)O[C@@H]2CO[C@H]3[C@@H]2OC[C@@H]3N)cc1 [Compound 50]
PA accum. (P. aeruginosa PAO1 [2]): 163 ± 39 nmol/10^12 CFUs | EC accum. (E. coli MG1655 [5]): 877 ± 29 nmol/10^12 CFUs

NC1CCCc2c1cncc2N1Cc2cc(Cl)ccc2C1=O (centres unmarked) [Compound 51]
PA accum. (P. aeruginosa PAO1 [2]): 222 ± 11 nmol/10^12 CFUs | EC accum. (E. coli MG1655 [5]): 500 ± 10 nmol/10^12 CFUs

N#Cc1ccc(-c2cncc3c2CCCC3N)cc1 (centres unmarked) [Compound 52]
PA accum. (P. aeruginosa PAO1 [2]): 161 ± 12 nmol/10^12 CFUs | EC accum. (E. coli MG1655 [5]): 929 ± 39 nmol/10^12 CFUs

CN1C(=O)CCc2cc(-c3cncc4c3CCC[C@H]4N)ccc21 [Compound 53]
PA accum. (P. aeruginosa PAO1 [2]): 282 ± 37 nmol/10^12 CFUs | EC accum. (E. coli MG1655 [5]): 437 ± 28 nmol/10^12 CFUs

NCCCCCCNS(=O)(=O)c1cccc2ccccc12 [Compound 54]
PA accum. (P. aeruginosa PAO1 [2]): 399 ± 63 nmol/10^12 CFUs | EC accum. (E. coli MG1655 [5]): 108 ± 17 nmol/10^12 CFUs

Cn1cc(C2=C(c3c4n(c5ccccc35)CC[C@H](CN)C4)C(=O)NC2=O)c2ccccc21 [Compound 55]
PA accum. (P. aeruginosa PAO1 [2]): 1193 ± 27 nmol/10^12 CFUs | EC accum. (E. coli MG1655 [5]): 17 ± 7 nmol/10^12 CFUs

Cc1ccc(C(=O)N(CCCN)[C@@H](c2nc3cc(Cl)ccc3c(=O)n2Cc2ccccc2)C(C)C)cc1 [Compound 56]
PA accum. (P. aeruginosa PAO1 [2]): 658 ± 113 nmol/10^12 CFUs | EC accum. (E. coli MG1655 [5]): 244 ± 31 nmol/10^12 CFUs

CC(=O)O[C@H]1C[C@@]2(C)[C@@H](C[C@@H](O)[C@H]3[C@@]4(C)CC[C@@H](O)[C@@H](C)[C@@H]4CC[C@@]32C)/C1=C(\CCC=C(C)C)C(=O)NCCCNCCCNCCCN [FA polyamine]
antibacterial activity (in words) (P. aeruginosa PAO1 [1]; Chart 6, strain not given): no longer has potent antibacterial activity | increase in accumulation relative to FA (P. aeruginosa PAO1 [2]; text b129): 30 -fold

CC(=O)O[C@H]1C[C@@]2(C)[C@@H](C[C@@H](O)[C@H]3[C@@]4(C)CC[C@@H](O)[C@@H](C)[C@@H]4CC[C@@]32C)/C1=C(\CCC=C(C)C)C(=O)O/N=C(\N)CN [FA prodrug 1]
MIC (P. aeruginosa PAO1 [1]; [8]): > 256 µg/mL | MIC (E. coli MG1655 [6]): > 256 µg/mL | EC Accumulation (FA) (E. coli MG1655 [5]): 850 ± 61 nmol/1012 CFUs

CC(=O)O[C@H]1C[C@@]2(C)[C@@H](C[C@@H](O)[C@H]3[C@@]4(C)CC[C@@H](O)[C@@H](C)[C@@H]4CC[C@@]32C)/C1=C(\CCC=C(C)C)C(=O)O/N=C(\N)CNCCCN [FA prodrug 2]
MIC (P. aeruginosa PAO1 [1]; [8]): > 256 µg/mL | MIC (E. coli MG1655 [6]): 256 µg/mL (≈ 397 µM) | EC Accumulation (FA) (E. coli MG1655 [5]): 969 ± 71 nmol/1012 CFUs

CC(=O)O[C@H]1C[C@@]2(C)[C@@H](C[C@@H](O)[C@H]3[C@@]4(C)CC[C@@H](O)[C@@H](C)[C@@H]4CC[C@@]32C)/C1=C(\CCC=C(C)C)C(=O)O/N=C(\N)CNCCCNCCCN [FA prodrug 3]
MIC (P. aeruginosa PAO1 [1]; [8]): 128 µg/mL (≈ 182 µM) | MIC (E. coli MG1655 [6]): 32 µg/mL (≈ 45.6 µM) | EC Accumulation (FA) (E. coli MG1655 [5]): 1764 ± 37 nmol/1012 CFUs

Cc1cc(NS(=O)(=O)c2ccc(N)cc2)no1 [Sulfamethoxazole]
MIC (P. aeruginosa PAO1 [1]; [9]): > 64 µg/mL | WT Accum (P. aeruginosa PAO1 [2]): 101 ± 26 nmol/10^12 CFUs | PAΔ6 MIC (P. aeruginosa PAΔ6 [3]; MH or LB broth (Table 7)): 4 µg/mL | Fold change (MIC) (P. aeruginosa PAΔ6 [3]): >16 | Fold change (Accum) (P. aeruginosa PAΔ6 [4]): 4.2 | PAΔ6 Accum (P. aeruginosa PAΔ6 [4]): 420 ± 15 nmol/10^12 CFUs

COc1cc(Cc2cnc(N)nc2N)cc(OC)c1OC [Trimethoprim]
MIC (P. aeruginosa PAO1 [1]; [9]): > 512 µg/mL | WT Accum (P. aeruginosa PAO1 [2]): 136 ± 11 nmol/10^12 CFUs | PAΔ6 MIC (P. aeruginosa PAΔ6 [3]; MH or LB broth (Table 7)): 2 µg/mL | Fold change (MIC) (P. aeruginosa PAΔ6 [3]): >256 | Fold change (Accum) (P. aeruginosa PAΔ6 [4]): 2.6 | PAΔ6 Accum (P. aeruginosa PAΔ6 [4]): 356 ± 28 nmol/10^12 CFUs

C=C[C@]1(C)C[C@@H](OC(=O)CSC(C)(C)CNC(=O)[C@H](N)C(C)C)[C@]2(C)[C@H](C)CC[C@]3(CCC(=O)[C@H]32)[C@@H](C)[C@@H]1O [Valnemulin]
MIC (P. aeruginosa PAO1 [1]; PAO1, read-out: PAO1 MIC): 256 µg/mL (≈ 453 µM) | MIC (P. aeruginosa PAO1 [1]; PAO1, read-out: WT MIC): 256 µg/mL (≈ 453 µM) | PAO1 + PMBN MIC (P. aeruginosa PAO1 [1]; co-treatment of 8 μg/mL of PMBN, MH broth): 1 µg/mL | change of accumulation upon membrane permeabilization (P. aeruginosa PAO1 [2]; treatment with PMBN, FIG. 1b): significant increase in accumulation | Fold change (P. aeruginosa PAΔ6 [3]): 2048 | PAΔ6 MIC (P. aeruginosa PAΔ6 [3]; [7]): 0.125 µg/mL | change of accumulation in efflux pump knockout PAΔ6 versus WT PAO1 (P. aeruginosa PAΔ6 [4]): increase in accumulation
